This note sets out measurements from ChEMBL document CHEMBL1136187, “Quaternary ammonium 3-(aminoethoxy)pyridines as antinociceptive agents” (Bioorg Med Chem Lett, 2003).

For assay [1], the system named is Mus musculus. Briefly: Antinociceptive response as maximal possible effect upon subcutaneous administration in mice at the dose of 15 mg/kg. The format is functional.
The target in assay [2] is Neuronal acetylcholine receptor. Briefly: Binding affinity towards nicotinic acetylcholine receptor (nACh) using [3H](-)-nicotine as radioligand in rat brain. The format is tissue-based.
Assay [3] concerns Mus musculus. As to the kind of experiment: Antinociceptive response as maximal possible effect upon intrathecal administration in mouse at the dose of 20 mg/kg. The format is functional.
For assay [4], the system named is Mus musculus. Briefly: Antinociceptive response as maximal possible effect upon subcutaneous administration in mice at the dose of 10 mg/kg. Format: functional.
The test system of assay [5] is Mus musculus. As to the kind of experiment: Antinociceptive response as maximal possible effect upon intrathecal administration in mouse at the dose of 25 mg/kg. Format: functional.
The test system of assay [6] is Mus musculus. As to the kind of experiment: Antinociceptive response as maximal possible effect upon intrathecal administration in mouse at the dose of 15 mg/kg. The format is functional.
Assay [7] relates to Mus musculus. As to the kind of experiment: Antinociceptive effect upon subcutaneous administration in mice using tail-flick assay; 12-18. Format: functional. Particulars: sc.
Assay [8] relates to Mus musculus. Briefly: Antinociceptive effect upon intrathecal administration in mouse using tail-flick assay; 10-19. The format is functional.
In assay [9] the test system is Mus musculus. As to the kind of experiment: Antinociceptive response as maximal possible effect upon subcutaneous administration in mice at the dose of 20 mg/kg. The format is functional.
Assay [10] concerns Mus musculus. Briefly: Antinociceptive effect upon subcutaneous administration in mice using tail-flick assay; 0.9-2.2. The format is functional. Particulars: sc.
The test system of assay [11] is Mus musculus. Briefly: Antinociceptive effect upon intrathecal administration in mouse using tail-flick assay; 16-23. The format is functional.
The species named for assay [12] is Mus musculus. As to the kind of experiment: animal or person. Particulars: Tail, sc.

The structures appear in SMILES notation.

Regarding `CCC[N+](C)(C)CCOc1cccnc1.[Cl-]`, the MPE in the assay on Mus musculus [1] stood at 1%; in the assay on Mus musculus [3], 3%. In assay [2], this compound had a Ki of 29.2 nM.

Turning to `COc1ccc(OCC[N+](C)(C)C)cn1`, in assay [2], the affinity corresponds to a Ki of 37 nM.

For `CC[N+](C)(C)CCOc1ccc(Br)nc1.[I-]`, in assay [2], the affinity corresponds to a Ki of 5 nM. Besides, the MPE with Mus musculus [4] and in the assay on Mus musculus [5] was 0% throughout.

On to `CC(C)[N+](C)(C)CCOc1cccnc1.[Cl-]`, for which the results for the MPE in the assay with Mus musculus [1] and with Mus musculus [3] were 3% and 2%, respectively. The compound also had a Ki in assay [2] of 13.8 nM.

As to `C[N+](C)(C)CCOc1ccc(Cl)nc1.[I-]`, the Ki in [2] is 1.3 nM. For the same compound, the MPE with Mus musculus [6] worked out at 4%; with Mus musculus [4] it was 5%.

As to `CN(C)CCOc1cccnc1.O=C(O)C(=O)O`, in the assay with Mus musculus [7], the ED50 came to 15 mg/kg.

As for `CC[N+](C)(C)CCOc1cccnc1.[Cl-]`, in the assay with Mus musculus [8], the ED50 came to 14 ug mouse-1. For the same compound, the MPE with Mus musculus [9] is on record as 5%. The same compound registered a Ki in assay [2] of 2.2 nM.

In the case of `C[N+](C)(C)CCOc1cccnc1.[Cl-]`, the ED50 came out at 1.4 mg/kg in the assay on Mus musculus [10] and 19 ug mouse-1 in the assay with Mus musculus [11]. This compound gave a Ki in assay [2] of 0.5 nM.

In the assay filed under Mus musculus [12], `CN1CCC[C@H]1c1cccnc1` [NICOTINE] showed an ED50 of 1.5 mg/kg.
